Source: ChEMBL document CHEMBL1909046, “DrugMatrix in vitro pharmacology data”

Target: T1, Amine oxidase [flavin-containing] A (Homo sapiens, UniProt P21397)
T1 sequence (P21397 whole entry): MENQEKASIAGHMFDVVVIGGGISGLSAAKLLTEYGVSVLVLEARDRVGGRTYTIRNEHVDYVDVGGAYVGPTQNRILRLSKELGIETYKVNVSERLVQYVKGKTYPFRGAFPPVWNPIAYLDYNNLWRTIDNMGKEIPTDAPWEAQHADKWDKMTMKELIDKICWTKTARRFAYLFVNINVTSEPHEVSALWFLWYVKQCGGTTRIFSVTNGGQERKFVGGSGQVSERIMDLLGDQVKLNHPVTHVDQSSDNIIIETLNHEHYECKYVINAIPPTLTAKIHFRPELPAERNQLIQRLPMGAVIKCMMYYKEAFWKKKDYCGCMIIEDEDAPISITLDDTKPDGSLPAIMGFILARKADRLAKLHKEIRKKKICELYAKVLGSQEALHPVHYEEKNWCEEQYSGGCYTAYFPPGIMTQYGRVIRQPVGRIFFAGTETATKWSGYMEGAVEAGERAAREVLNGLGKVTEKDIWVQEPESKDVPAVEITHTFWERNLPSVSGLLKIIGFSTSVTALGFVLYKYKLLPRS
Assay: DRUGMATRIX: Monoamine Oxidase MAO-A enzyme inhibition (substrate: Kynuramine)
Parameters: species or system BTI-TN-5B1-4
Conditions: bti-tn-5b1-4; Not Active = under 50% inhibition at 10 µM

Row | SMILES | IC50
1 | CO[C@@]12[C@H](COC(N)=O)C3=C(C(=O)C(C)=C(N)C3=O)N1C[C@@H]1N[C@@H]12 [MITOMYCIN] | Not Active
2 | Cc1[nH]c(=O)c(C#N)cc1-c1ccncc1 [MILRINONE] | Not Active
3 | O=[As][O-].[Na+] [SODIUM ARSENITE] | Not Active
4 | COC(=O)Nc1nc2ccc(C(=O)c3ccccc3)cc2[nH]1 [MEBENDAZOLE] | Not Active
5 | CCOC(=O)C1=C(C)NC(C)=C(C(=O)OCC)C1c1ccccc1/C=C/C(=O)OC(C)(C)C [LACIDIPINE] | Not Active

Tested on: not listed separately
Assay: DRUGMATRIX: Calcium Channel Type L, Dihydropyridine radioligand binding (ligand: [3H] Nitrendipine)
Type: cell membranes, Rattus norvegicus, Wistar, Cerebral cortex, Membrane
Conditions: Not Active = under 50% inhibition at 10 µM

Row | SMILES | IC50 | Ki
6 | CO[C@@]12[C@H](COC(N)=O)C3=C(C(=O)C(C)=C(N)C3=O)N1C[C@@H]1N[C@@H]12 [MITOMYCIN] | Not Active | Not Active
7 | Cc1[nH]c(=O)c(C#N)cc1-c1ccncc1 [MILRINONE] | Not Active | Not Active
8 | O=[As][O-].[Na+] [SODIUM ARSENITE] | Not Active | Not Active
9 | COC(=O)Nc1nc2ccc(C(=O)c3ccccc3)cc2[nH]1 [MEBENDAZOLE] | Not Active | Not Active

Same assay, conditions: Not Active = under 50% inhibition at 10 µM; read-out: IC50

Row | SMILES | IC50
10 | CCOC(=O)C1=C(C)NC(C)=C(C(=O)OCC)C1c1ccccc1/C=C/C(=O)OC(C)(C)C [LACIDIPINE] | 400 pM

Same assay, conditions: Not Active = under 50% inhibition at 10 µM; read-out: Ki

Row | SMILES | Ki
11 | CCOC(=O)C1=C(C)NC(C)=C(C(=O)OCC)C1c1ccccc1/C=C/C(=O)OC(C)(C)C [LACIDIPINE] | 257 pM

Target: T2, Cathepsin G (Homo sapiens, UniProt P08311);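 further: inhibition of Cathepsin G enzyme activity, tested on an AMC-conjugated peptide substrate; in other assays of this panel Not Active means under 50% inhibition at 10 µM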
T2 sequence (P08311 whole entry): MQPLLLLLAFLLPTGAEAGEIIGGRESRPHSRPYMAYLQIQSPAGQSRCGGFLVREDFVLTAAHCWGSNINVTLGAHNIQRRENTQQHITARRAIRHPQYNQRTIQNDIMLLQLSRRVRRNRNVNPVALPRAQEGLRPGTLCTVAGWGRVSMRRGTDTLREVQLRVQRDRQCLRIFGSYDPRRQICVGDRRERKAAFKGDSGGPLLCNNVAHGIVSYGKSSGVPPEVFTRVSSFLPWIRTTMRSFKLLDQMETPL
Assay: biochemical
Type: tissue-based, Neutrophil
Conditions: neutrophil

Row | SMILES | IC50
12 | CO[C@@]12[C@H](COC(N)=O)C3=C(C(=O)C(C)=C(N)C3=O)N1C[C@@H]1N[C@@H]12 [MITOMYCIN] | Not Active
13 | Cc1[nH]c(=O)c(C#N)cc1-c1ccncc1 [MILRINONE] | Not Active
14 | O=[As][O-].[Na+] [SODIUM ARSENITE] | Not Active
15 | COC(=O)Nc1nc2ccc(C(=O)c3ccccc3)cc2[nH]1 [MEBENDAZOLE] | Not Active
16 | CCOC(=O)C1=C(C)NC(C)=C(C(=O)OCC)C1c1ccccc1/C=C/C(=O)OC(C)(C)C [LACIDIPINE] | Not Active

Target: T3, Angiotensin-converting enzyme (Oryctolagus cuniculus, UniProt P12822);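 further: enzymatic inhibition of angiotensin-converting enzyme measured with FAPGG as the substrate; in other assays of this panel Not Active means under 50% inhibition at 10 µM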
T3 sequence (P12822 whole entry): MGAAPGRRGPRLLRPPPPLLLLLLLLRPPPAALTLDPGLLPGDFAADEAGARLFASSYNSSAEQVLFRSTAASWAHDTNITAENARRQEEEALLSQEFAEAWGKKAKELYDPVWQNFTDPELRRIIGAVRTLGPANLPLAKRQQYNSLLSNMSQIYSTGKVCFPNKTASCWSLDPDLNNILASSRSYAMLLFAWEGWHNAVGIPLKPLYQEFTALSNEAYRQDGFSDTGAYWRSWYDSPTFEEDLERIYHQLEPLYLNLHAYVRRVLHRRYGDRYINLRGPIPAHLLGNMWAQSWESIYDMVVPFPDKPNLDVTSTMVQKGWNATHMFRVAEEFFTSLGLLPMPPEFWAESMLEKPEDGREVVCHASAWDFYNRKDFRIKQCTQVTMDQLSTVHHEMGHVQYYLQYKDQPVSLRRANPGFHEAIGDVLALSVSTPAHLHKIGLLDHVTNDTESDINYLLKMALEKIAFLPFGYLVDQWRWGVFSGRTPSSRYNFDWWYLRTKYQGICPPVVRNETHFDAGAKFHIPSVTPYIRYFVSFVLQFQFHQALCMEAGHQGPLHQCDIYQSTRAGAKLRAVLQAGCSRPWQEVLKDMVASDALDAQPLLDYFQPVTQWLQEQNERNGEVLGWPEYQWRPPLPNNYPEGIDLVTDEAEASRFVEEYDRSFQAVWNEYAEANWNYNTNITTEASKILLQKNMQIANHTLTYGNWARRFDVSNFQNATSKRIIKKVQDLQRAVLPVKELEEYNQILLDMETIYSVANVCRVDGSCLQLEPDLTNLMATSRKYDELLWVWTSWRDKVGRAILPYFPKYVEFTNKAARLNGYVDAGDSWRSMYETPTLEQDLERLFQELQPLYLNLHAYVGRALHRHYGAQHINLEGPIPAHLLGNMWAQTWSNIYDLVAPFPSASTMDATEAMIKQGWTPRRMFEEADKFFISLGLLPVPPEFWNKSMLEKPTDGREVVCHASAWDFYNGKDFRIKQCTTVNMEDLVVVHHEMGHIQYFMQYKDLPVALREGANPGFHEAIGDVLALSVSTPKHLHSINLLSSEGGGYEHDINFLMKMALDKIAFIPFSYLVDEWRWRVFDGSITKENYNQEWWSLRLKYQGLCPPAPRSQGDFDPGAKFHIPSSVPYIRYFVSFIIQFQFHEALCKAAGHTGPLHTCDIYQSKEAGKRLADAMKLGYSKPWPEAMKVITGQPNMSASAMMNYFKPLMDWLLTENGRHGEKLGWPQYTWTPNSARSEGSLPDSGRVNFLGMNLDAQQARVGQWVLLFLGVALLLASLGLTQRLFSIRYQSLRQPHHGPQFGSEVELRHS
Assay: biochemical
Type: tissue-based, Lung
Conditions: not given

Row | SMILES | IC50
17 | CO[C@@]12[C@H](COC(N)=O)C3=C(C(=O)C(C)=C(N)C3=O)N1C[C@@H]1N[C@@H]12 [MITOMYCIN] | Not Active
18 | Cc1[nH]c(=O)c(C#N)cc1-c1ccncc1 [MILRINONE] | Not Active
19 | O=[As][O-].[Na+] [SODIUM ARSENITE] | Not Active
20 | COC(=O)Nc1nc2ccc(C(=O)c3ccccc3)cc2[nH]1 [MEBENDAZOLE] | Not Active
21 | CCOC(=O)C1=C(C)NC(C)=C(C(=O)OCC)C1c1ccccc1/C=C/C(=O)OC(C)(C)C [LACIDIPINE] | Not Active

Target: T4, Calcitonin receptor (Homo sapiens, UniProt P30988); further: in other assays of this panel Not Active means under 50% inhibition at 10 µM
T4 sequence (P30988 whole entry): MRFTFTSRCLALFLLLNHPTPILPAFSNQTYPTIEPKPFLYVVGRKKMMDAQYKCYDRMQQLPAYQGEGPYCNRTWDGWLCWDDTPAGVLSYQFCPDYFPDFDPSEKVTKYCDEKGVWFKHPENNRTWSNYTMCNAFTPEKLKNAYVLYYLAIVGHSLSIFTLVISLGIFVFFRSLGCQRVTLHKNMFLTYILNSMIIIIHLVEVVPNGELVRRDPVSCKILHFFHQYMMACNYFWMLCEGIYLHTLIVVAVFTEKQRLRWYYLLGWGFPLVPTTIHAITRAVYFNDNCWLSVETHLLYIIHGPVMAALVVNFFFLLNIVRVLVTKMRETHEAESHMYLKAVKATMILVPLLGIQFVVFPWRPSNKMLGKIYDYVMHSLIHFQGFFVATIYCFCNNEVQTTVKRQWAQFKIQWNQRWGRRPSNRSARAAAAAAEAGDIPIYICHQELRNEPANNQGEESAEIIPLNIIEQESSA
Assay: not given
Type: cell membranes, Membrane
Conditions: t47d

Row | SMILES | IC50
22 | CO[C@@]12[C@H](COC(N)=O)C3=C(C(=O)C(C)=C(N)C3=O)N1C[C@@H]1N[C@@H]12 [MITOMYCIN] | Not Active
23 | Cc1[nH]c(=O)c(C#N)cc1-c1ccncc1 [MILRINONE] | Not Active
24 | O=[As][O-].[Na+] [SODIUM ARSENITE] | Not Active
25 | COC(=O)Nc1nc2ccc(C(=O)c3ccccc3)cc2[nH]1 [MEBENDAZOLE] | Not Active
26 | CCOC(=O)C1=C(C)NC(C)=C(C(=O)OCC)C1c1ccccc1/C=C/C(=O)OC(C)(C)C [LACIDIPINE] | Not Active

Target: Beta-1 adrenergic receptor (Homo sapiens, UniProt P08588)
Sequence (P08588 whole entry): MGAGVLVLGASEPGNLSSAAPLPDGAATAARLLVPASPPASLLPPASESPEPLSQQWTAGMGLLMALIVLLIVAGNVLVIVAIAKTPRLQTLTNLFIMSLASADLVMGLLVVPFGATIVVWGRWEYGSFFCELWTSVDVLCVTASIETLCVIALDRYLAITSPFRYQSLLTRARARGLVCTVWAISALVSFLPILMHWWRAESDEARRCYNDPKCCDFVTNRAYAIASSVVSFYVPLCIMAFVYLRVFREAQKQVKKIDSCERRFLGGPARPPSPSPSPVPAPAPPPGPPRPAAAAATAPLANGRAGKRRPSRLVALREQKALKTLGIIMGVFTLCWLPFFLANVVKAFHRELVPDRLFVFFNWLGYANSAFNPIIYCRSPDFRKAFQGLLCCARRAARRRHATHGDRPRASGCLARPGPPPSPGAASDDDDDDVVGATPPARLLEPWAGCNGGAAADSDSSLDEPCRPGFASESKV
Assay: DRUGMATRIX: Adrenergic beta1 radioligand binding (ligand: [125I] Cyanopindolol)
Type: cell membranes, CHO-K1, Membrane
Conditions: cho-k1; Not Active = under 50% inhibition at 10 µM

Row | SMILES | IC50
27 | CO[C@@]12[C@H](COC(N)=O)C3=C(C(=O)C(C)=C(N)C3=O)N1C[C@@H]1N[C@@H]12 [MITOMYCIN] | Not Active
28 | Cc1[nH]c(=O)c(C#N)cc1-c1ccncc1 [MILRINONE] | Not Active
29 | O=[As][O-].[Na+] [SODIUM ARSENITE] | Not Active
30 | COC(=O)Nc1nc2ccc(C(=O)c3ccccc3)cc2[nH]1 [MEBENDAZOLE] | Not Active
31 | CCOC(=O)C1=C(C)NC(C)=C(C(=O)OCC)C1c1ccccc1/C=C/C(=O)OC(C)(C)C [LACIDIPINE] | Not Active

Target: Acetylcholinesterase (Homo sapiens, UniProt P22303)
Sequence (P22303 whole entry): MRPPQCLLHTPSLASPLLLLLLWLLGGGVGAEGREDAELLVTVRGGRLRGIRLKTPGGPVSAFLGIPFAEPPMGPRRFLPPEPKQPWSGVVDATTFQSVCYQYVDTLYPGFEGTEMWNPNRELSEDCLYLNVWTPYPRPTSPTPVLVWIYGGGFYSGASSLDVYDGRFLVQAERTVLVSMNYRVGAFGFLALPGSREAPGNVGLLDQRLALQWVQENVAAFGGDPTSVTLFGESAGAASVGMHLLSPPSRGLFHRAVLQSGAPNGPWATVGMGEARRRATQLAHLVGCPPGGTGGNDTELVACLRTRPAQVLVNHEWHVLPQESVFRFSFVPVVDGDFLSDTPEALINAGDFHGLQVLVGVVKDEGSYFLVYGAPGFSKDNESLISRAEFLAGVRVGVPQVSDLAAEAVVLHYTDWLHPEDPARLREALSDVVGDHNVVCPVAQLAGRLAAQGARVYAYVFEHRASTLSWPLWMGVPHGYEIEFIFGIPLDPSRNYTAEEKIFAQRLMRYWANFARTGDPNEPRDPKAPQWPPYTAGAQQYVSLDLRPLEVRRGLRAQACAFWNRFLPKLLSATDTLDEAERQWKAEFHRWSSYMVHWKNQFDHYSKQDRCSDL
Assay: DRUGMATRIX: Acetylcholinesterase enzyme inhibition (substrate: acetylthiocholine)
Type: cell-based, HEK293
Conditions: hek293; Not Active = under 50% inhibition at 10 µM

Row | SMILES | IC50
32 | CO[C@@]12[C@H](COC(N)=O)C3=C(C(=O)C(C)=C(N)C3=O)N1C[C@@H]1N[C@@H]12 [MITOMYCIN] | Not Active
33 | Cc1[nH]c(=O)c(C#N)cc1-c1ccncc1 [MILRINONE] | Not Active
34 | O=[As][O-].[Na+] [SODIUM ARSENITE] | Not Active
35 | COC(=O)Nc1nc2ccc(C(=O)c3ccccc3)cc2[nH]1 [MEBENDAZOLE] | Not Active
36 | CCOC(=O)C1=C(C)NC(C)=C(C(=O)OCC)C1c1ccccc1/C=C/C(=O)OC(C)(C)C [LACIDIPINE] | Not Active
